In brackets after ≈: the same amount, converted by molar mass.
Columns and labels:
Test in all cases: MIC, microdilution broth method (NCCLS)
Format in all cases: cell-based
Details in all cases: 35° C., 16-20 hours
H. influenzae ATCC49247 = tested on: H. influenzae ATCC49247
Experimental: (§1) Minimal inhibitory concentration (MIC) has been an indicator of in vitro antibacterial activity widely used in the art. The in vitro antimicrobial activity of the compounds was determined by the microdilution broth method following the test method from the National Committee for Clinical Laboratory Standards (NCCLS). This method is described in the NCCLS Document M7-A4, Vol.17, No.2, “Methods for Dilution Antimicrobial Susceptibility Test for Bacteria that Grow Aerobically—Fourth Edition”, which is incorporated herein by reference.
(§2) In this method two-fold serial dilutions of drug in cation adjusted Mueller-Hinton broth are added to wells in microdilution trays. The test organisms are prepared by adjusting the turbidity of actively growing broth cultures so that the final concentration of test organism after it is added to the wells is approximately 5×10^4 CFU/well.
(§3) Following inoculation of the microdilution trays, the trays are incubated at 35° C. for 16-20 hours and then read. […] The amount of growth in the wells containing the test compound is compared with the amount of growth in the growth-control wells (no test compound) used in each tray. As set forth in Table 1, compounds of the present invention were tested against a variety of Gram positive and Gram negative pathogenic bacteria resulting in a range of activities depending on the organism tested.

E. faecalis ATCC29212 = tested on: E. faecalis ATCC29212
Experimental: as §1, §2, §3

S. aureus ATCC29213 = tested on: S. aureus ATCC29213
Experimental: as §1, §2, §3

S. pneumoniae ATCC49619 = tested on: S. pneumoniae ATCC49619
Experimental: as §1, §2, §3

SMILES | MIC (E: H. influenzae ATCC49247) (H. influenzae ATCC49247) [µg/mL] | MIC (C: E. faecalis ATCC29212) (E. faecalis ATCC29212) [µg/mL] | MIC (B: S. aureus ATCC29213) (S. aureus ATCC29213) [µg/mL] | MIC (D: S. pneumoniae ATCC49619) (S. pneumoniae ATCC49619)
CCC1OC(=O)C(C)C(=O)C(C)C(OC2OC(C)CC(N(C)C)C2O)C(C)(OC(=O)OCC=Cc2ccc(-c3ncco3)cc2)CC(C)C(=O)C(C)C2NC(=O)OC12C (centres unmarked) [Compound 47] | 0.5 (≈ 0.605 µM) | 0.06 (≈ 0.0726 µM) | 0.12 (≈ 0.145 µM) | ≦0.015 μg/mL
CCC1OC(=O)C(C)C(=O)C(C)C(OC2OC(C)CC(N(C)C)C2O)C(C)(OC(=O)OCC=Cc2ccc(-c3cnco3)cc2)CC(C)C(=O)C(C)C2NC(=O)OC12C (centres unmarked) [Compound 48] | 1 (≈ 1.21 µM) | 0.12 (≈ 0.145 µM) | 0.12 (≈ 0.145 µM) | 0.03 µg/mL (≈ 0.0363 µM)
CCC1OC(=O)C(C)C(=O)C(C)C(OC2OC(C)CC(N(C)C)C2O)C(C)(OC(=O)OCC=Cc2ccc(-c3nccs3)cc2)CC(C)C(=O)C(C)C2NC(=O)OC12C (centres unmarked) [Compound 49] | 1 (≈ 1.19 µM) | 0.12 (≈ 0.143 µM) | 0.12 (≈ 0.143 µM) | 0.03 µg/mL (≈ 0.0356 µM)
CCC1OC(=O)C(C)C(=O)C(C)C(OC2OC(C)CC(N(C)C)C2O)C(C)(OC(=O)OCC=Cc2ccc(-c3cccs3)cc2)CC(C)C(=O)C(C)C2NC(=O)OC12C (centres unmarked) [Compound 50] | 2 (≈ 2.38 µM) | 0.5 (≈ 0.595 µM) | 1 (≈ 1.19 µM) | 0.06 µg/mL (≈ 0.0713 µM)
CCC1OC(=O)C(C)C(=O)C(C)C(OC2OC(C)CC(N(C)C)C2O)C(C)(OC(=O)OCC=Cc2ccc(-c3nnco3)cc2)CC(C)C(=O)C(C)C2NC(=O)OC12C (centres unmarked) [Compound 52] | 1 (≈ 1.21 µM) | 0.06 (≈ 0.0726 µM) | 0.12 (≈ 0.145 µM) | ≦0.015 μg/mL
CCC1OC(=O)C(C)C(=O)C(C)C(OC2OC(C)CC(N(C)C)C2O)C(C)(OC(=O)OCC=Cc2nc3ccccc3n2C)CC(C)C(=O)C(C)C2NC(=O)OC12C (centres unmarked) [Compound 55] | 1 (≈ 1.23 µM) | 0.12 (≈ 0.148 µM) | 0.25 (≈ 0.308 µM) | 0.03 µg/mL (≈ 0.0369 µM)
CCC1OC(=O)C(C)C(=O)C(C)C(OC2OC(C)CC(N(C)C)C2O)C(C)(OC(=O)OCC=Cc2ccc(-c3ncc(Br)cn3)cc2)CC(C)C(=O)C(C)C2NC(=O)OC12C (centres unmarked) [Compound 56] | 2 (≈ 2.18 µM) | 0.25 (≈ 0.273 µM) | 0.5 (≈ 0.546 µM) | 0.06 µg/mL (≈ 0.0655 µM)

Next, values leading:

MIC (E: H. influenzae ATCC49247) (H. influenzae ATCC49247) [µg/mL] | MIC (C: E. faecalis ATCC29212) (E. faecalis ATCC29212) [µg/mL] | MIC (B: S. aureus ATCC29213) (S. aureus ATCC29213) [µg/mL] | MIC (D: S. pneumoniae ATCC49619) (S. pneumoniae ATCC49619) | SMILES
4 (≈ 4.62 µM) | 0.5 (≈ 0.578 µM) | 0.5 (≈ 0.578 µM) | 0.06 µg/mL (≈ 0.0694 µM) | CCc1cnc(-c2ccc(C=CCOC(=O)OC3(C)CC(C)C(=O)C(C)C4NC(=O)OC4(C)C(CC)OC(=O)C(C)C(=O)C(C)C3OC3OC(C)CC(N(C)C)C3O)cc2)nc1 (centres unmarked) [Compound 58]
1 (≈ 1.18 µM) | 0.12 (≈ 0.141 µM) | 0.12 (≈ 0.141 µM) | 0.03 µg/mL (≈ 0.0353 µM) | CCC1OC(=O)C(C)C(=O)C(C)C(OC2OC(C)CC(N(C)C)C2O)C(C)(OC(=O)OCC=Cc2ccc(-c3ccc(C)nn3)cc2)CC(C)C(=O)C(C)C2NC(=O)OC12C (centres unmarked) [Compound 61]
1 (≈ 1.19 µM) | 0.12 (≈ 0.143 µM) | 0.25 (≈ 0.297 µM) | 0.06 µg/mL (≈ 0.0713 µM) | CCC1OC(=O)C(C)C(=O)C(C)C(OC2OC(C)CC(N(C)C)C2O)C(C)(OC(=O)OCC=Cc2ccc(-c3ccccn3)s2)CC(C)C(=O)C(C)C2NC(=O)OC12C (centres unmarked) [Compound 63]
1 (≈ 1.19 µM) | 0.06 (≈ 0.0712 µM) | 0.12 (≈ 0.142 µM) | 0.03 µg/mL (≈ 0.0356 µM) | CCC1OC(=O)C(C)C(=O)C(C)C(OC2OC(C)CC(N(C)C)C2O)C(C)(OC(=O)OCC=Cc2ccc(-c3ncccn3)s2)CC(C)C(=O)C(C)C2NC(=O)OC12C (centres unmarked) [Compound 64]

Reference: patent publication US6825170B2, “6-O-acyl ketolide antibacterials” (Ortho-McNeil Pharmaceutical, Inc., priority 2001, dated 2004)
